In assay [1] the test system is CH58TF infected primary CD4+ T-cells. The assay is described as follows: HIV+ patient sera/plasma recognition of CH58TF infected primary CD4+ T-cells (flow cytometry cell-surface staining). The class given is cell-based, HIV-1. To be noted: Human immunodeficiency virus 1, T-cell, read-out: Fold Over DMSO (patient sera, n = 3). How it is done:
(§1) Cell-surface staining of primary CD4+ T cells from healthy HIV uninfected individuals or CEM-NKr cells is performed, as described in Prevost, “Influence of the Envelope gp120 Phe 43 Cavity on HIV-1 Sensitivity to Antibody-Dependent Cell-Mediated Cytotoxicity Responses,” 2017, J. Virol 91; Richard, “CD4 mimetics sensitize HIV-1-infected cells to ADCC,” 2015, Proc. Natl. Acad. Sci. USA, 112:E2687-2694; Richard, “Small CD4 Mimetics Prevent HIV-1 Uninfected Bystander CD4+ T Cell Killing Mediated by Antibody-dependent Cell-mediated Cytotoxicity,” 2016, EBioMedicine 3:122-134; Veillette, “The HIV-1 gp120 CD4-Bound Conformation Is Preferentially Targeted by Antibody-Dependent Cellular Cytotoxicity-Mediating Antibodies in Sera from HIV-1-Infected Individuals,” 2015, J. Virol., 89:545-551; Veillette, “Interaction with cellular CD4 exposes HIV-1 envelope epitopes targeted by antibody-dependent cell-mediated cytotoxicity,” 2014, J. Virol., 88:2633-2644; Richard, “Uninfected Bystander Cells Impact the Measurement of HIV-Specific Antibody-Dependent Cellular Cytotoxicity Responses,” 2018, MBio. 9(2): e00358-18; Richard, “BST-2 Expression Modulates Small CD4-Mimetic Sensitization of HIV-1-Infected Cells to Antibody-Dependent Cellular Cytotoxicity,” 2017, J. Virol. 91(11):e00219-17. Binding of HIV-1 infected cells by HIV+ sera (1:1000 dilution) or anti-Env Abs (such as 17b) is performed […] in vitro infection at 37° C. in presence of different concentrations of the MCG analogs or with equivalent volume of vehicle (DMSO). Cells infected with HIV-1 primary isolates are stained intracellularly for HIV-1 p24 using the Cytofix/Cytoperm Fixation/Permeabilization Kit (BD Biosciences, Mississauga, ON, Canada) and then fluorescent anti-p24 mAb (PE-anti-p24, clone KC57; Beckman Coulter/Immunotech, Hialeah, FL) (1:100 final concentration). The percentage of infected cells (p24^+ or GFP+ cells) is determined by gating the living cell population based on the viability dye staining. Samples are analyzed on an LSRII cytometer (BD Biosciences, Mississauga, ON, Canada) and data analysis is performed using FlowJo vX0.7 (Tree Star, Ashland, OR, USA).
HIV+ Patient Sera (n=3) Recognition of CH58TF Infected Primary CD4+ T-Cells
Staining with patient sera and 50 μM of compounds given as a fold change over DMSO (vehicle).
(§2) Briefly, Primary CD4 T cells isolated from PBMC were infected with HIV-1CH58TF for 48 hours. For cell surface staining, 5 μg/ml 17b (FIG. 15A) or 1:1000 diluted HIV+ plasma (n=15) (FIG. 15B) were used in the presence of the different MCG analogs (50 μM), (+)-BNM-III-170 or with an equivalent volume of vehicle (DMSO). An Alexa Fluor 647-conjugated anti-human IgG secondary Ab was then used for fluorescent labeling. For ADCC (FIG. 15C), infected cells were used as target cells in a FACS-based ADCC assay that measures the killing of infected (p24+ cells). See, Madani, 2016, J. Virol., 90:5031-5046. The assay determines susceptibility to ADCC mediated by a 1/1,000 dilution of plasma from 15 HIV-1-infected individuals in the presence of the different MCG analogs (50 μM), (+)-BNM-III-170 (50 μM) or with an equivalent volume of vehicle (DMSO). Correlation between cell-surface staining with HIV+ plasma and ADCC was calculated using the Spearman rank correlation (FIG. 15D).

Assay [2] has as its system HIV-1JR-FL EnvΔCT expressed at the surface of HOS cells. The assay is described as follows: Cell-based ELISA (CBE), 17b readout. To be noted: MCG analogs 50 μM; BNM-III-170 5 μM; 2G12 and DMSO normalized. How it is done:
Detection of trimeric HIV-1 Env at the surface of HOS cells was performed by cell-based ELISA, as described in Desormeaux, “The highly conserved layer-3 component of the HIV-1 gp120 inner domain is critical for CD4-required conformational transitions,” J. Virol. 87:2549-2562; Alsahafi, “Effects of the I559P gp41 change on the conformation and function of the human immunodeficiency virus (HIV-1) membrane envelope glycoprotein trimer,” 2015, PLoS One 10:e0122111; and Veillette, “Conformational evaluation of HIV-1 trimeric envelope glycoproteins using a cell-based ELISA assay,” 2014, J. Vis. Exp., 91:51995. To enhance cell-surface expression of HIV-1 EnvRF a stop codon was introduced to replace the codon for Gly 711, truncating the cytoplasmic tail (ACT). Briefly, HOS cells were seeded in T-75 flasks (3×10^6 cells per flask) and transfected the next day with 22.5 μg of Env-expressing plasmids (wild-type and mutants S375W, S375T, H66A, A582T/L587A, etc) using the standard polyethylenimine (PEI, Polyscience Inc, PA, USA) transfection method. Twenty-four hours after transfection, cells were plated in 384-wells plates (2×10^4 cells per well). One day later, cells were washed twice with blocking buffer (10 mg/mL non-fat dry milk, 1.8 mM CaCl2), 1 mM MgCl2, 25 mM Tris, pH 7.5 and 140 mM NaCl) and then incubated for 30 minutes at room temperature with different concentrations of MCG analogs or equivalent volume of vehicle (DMSO). Cells were then incubated for an additional 1 h at room temperature with anti-HIV-1 Env monoclonal antibodies recognizing CD4-induced gp120 epitopes (17b, A32), CD4-binding site gp120 epitopes (VRC03, VRC01, F105, and b12), gp120 V3 glycans (19b, PGT126, PGT122, and 10.1074), gp120 outer domain (2G12), and gp120-gp41 interface (PGT151 and VRC34) epitopes. All ligands were diluted in blocking buffer. A horseradish peroxidase-conjugated antibody specific for the Fc region of human or mouse IgG (Pierce) was then incubated with the samples for 45 minutes at room temperature. For all conditions, cells were washed 5 times with blocking buffer and 5 times with washing buffer (1.8 mM CaCl2), 1 mM MgCl2, 25 mM Tris, pH 7.5 and 140 mM NaCl). HRP enzyme activity was determined after the addition of 20 μl per well of a 1:1 mix of Western Lightning oxidizing and luminol reagents (Perkin Elmer Life Sciences). Light emission was measured with an LB 941 TriStar luminometer (Berthold Technologies) and analysis with Graph Pad software.
The data of Table 2 is given as the fold over BNM-III-170 (5 μM) of Cell-Based ELISA with MCG Analogs (50 μM)—17b readout, 2G12 and DMSO normalized.
To identify molecules able to expose vulnerable Env epitopes, a cell-based ELISA (CBE) assay was adapted, capable of measuring conformational changes of membrane-bound trimeric Env as described in Veillette, 2014, J. Vis. Exp. doi:10.3791/51995:51995; Haim, 2011, PLoS Pathog 7:e1002101, into a high-throughput screening (HTS) platform (FIG. 10A). Briefly, the cytoplasmic-tail deleted HIV-1JR-FL Tier-2/3 Env was expressed on the surface of HOS cells in a 384-well-plate format. The cytoplasmic tail of Env was deleted to enhance Env expression at the cell surface and therefore enhance the sensitivity of the CBE assay. See, Veilette and Haim, 2009, PLoS Pathog 5:e100036. Small molecules or, as a positive control, soluble (sCD4) were added to expose the HIV-1JR-FL EnvΔCT epitope that can be recognized by the CD4i antibody 17b. See, Wyatt, 1995, J. Virol. 69:5723-5733; Rizzuto, 1998, Science 280:1949-1953.
17b binding was detected by a horseradish peroxidase-conjugated (HRP) second antibody, and HRP enzyme activity was measured by Western Lightning oxidizing and luminal reagents. 17b binding in the presence of sCD4 was set as the control (FIG. 10B, blue dots), small molecules that enhanced 17b binding above 25% of the one induced by sCD4 were retested in quadruplicate and only one molecule (UM0059920) was deemed a true positive (FIG. 10B, red dots). […]

Assay [3] relates to CH58TF infected primary CD4+ T-cells. The assay is described as follows: Recognition of HIV-1 infected cells by 17b (flow cytometry cell-surface staining). In kind it is cell-based. Particulars: Human immunodeficiency virus 1, T-cell, read-out: Fold Over DMSO (17b, n = 1). How it is done: as §1, §2

Take `CCS(=O)(=O)N1CCC[C@H](C(=O)Nc2ccc(Br)c(Cl)c2)C1` [(S)-MCG-III-085-C06]: the fold induction at 50 µM was 1.28 in assay [1] and 3.1 in assay [3]. The “Fold over BNM-III-170 - 17b binding (±0.05)” value (“Fold … (±0.05)” below) in assay [2] is reported as 0.34 fold.

Take `O=C(Nc1ccc(Cl)c(F)c1)[C@H]1CCCN(S(=O)(=O)c2ccccc2)C1` [(S)-MCG-III-085-D01]: the fold induction at 50 µM stood at 5.95 in assay [1] and 6.4 in assay [3]. Besides, in assay [2], the “Fold … (±0.05)” value is 0.45 fold.

On to `O=C(Nc1ccc(F)c(Cl)c1)[C@H]1CCCN(S(=O)(=O)c2ccccc2)C1` [(S)-MCG-III-085-D02], for which the fold induction at 50 µM in assay [1] turned out to be 1.37; in assay [3] it was 2.54. For the same compound, the “Fold … (±0.05)” value in assay [2] was determined as 0.18 fold.

`O=C(Nc1ccc(Cl)c(Cl)c1)[C@H]1CCCN(S(=O)(=O)c2ccccc2)C1` [(S)-MCG-III-085-D03]: the fold induction at 50 µM came out at 2.03 in assay [1] and 4.87 in assay [3]. Further, in assay [2], the “Fold … (±0.05)” value worked out at 0.20 fold.

Turning to `O=C(Nc1ccc(F)c(F)c1)[C@H]1CCCN(S(=O)(=O)c2ccccc2)C1` [(S)-MCG-III-085-D04], the fold induction at 50 µM in assay [1] turned out to be 1.84; in assay [3], 3.15. The “Fold … (±0.05)” value in assay [2] turned out to be 0.28 fold.

Take `O=C(Nc1ccc(Cl)c(F)c1)[C@H]1CCCN(S(=O)(=O)c2cccnc2)C1` [(S)-MCG-III-116-A01]: the fold induction at 50 µM in assay [1] was 2.15. In addition, the “Fold … (±0.05)” value in assay [2] was found to be 0.41 fold.

As to `O=C(Nc1ccc(Cl)c(F)c1)[C@H]1CCCN(S(=O)(=O)C2CCCCC2)C1` [(S)-MCG-III-116-A03], the fold induction at 50 µM in assay [1] was 1.56. Besides, in assay [2], the “Fold … (±0.05)” value worked out at 0.36 fold.

`COc1ccc(S(=O)(=O)N2CCC[C@H](C(=O)Nc3ccc(Cl)c(F)c3)C2)cc1` [(S)-MCG-III-116-A05]: the fold induction at 50 µM in assay [1] amounted to 1.1. Further, in assay [2], the “Fold … (±0.05)” value is listed as 0.29 fold.

For the compound `N#Cc1ccc(S(=O)(=O)N2CCC[C@H](C(=O)Nc3ccc(Cl)c(F)c3)C2)cc1` [(S)-MCG-III-116-A06], the fold induction at 50 µM in assay [1] is 1.15. Also, the “Fold … (±0.05)” value in assay [2] came out at 0.31 fold.

`CC(=O)Nc1ccc(S(=O)(=O)N2CCC[C@H](C(=O)Nc3ccc(Cl)c(F)c3)C2)cc1` [(S)-MCG-III-117]: in assay [1], the fold induction at 50 µM worked out at 1.89. In addition, in assay [2], the “Fold … (±0.05)” value was found to be 0.21 fold.

For the compound `O=C(Nc1ccc(Cl)c(F)c1)[C@H]1CCCN(S(=O)(=O)c2ccc(Br)cc2)C1` [(S)-MCG-III-128], the fold induction at 50 µM in assay [1] is 1.07. Also, the “Fold … (±0.05)” value in assay [2] stood at 0.21 fold.

On to `CC(C)CNC(=O)N1CCC[C@H](C(=O)Nc2ccc(C(F)(F)F)c(F)c2)C1` [(S)-MCG-IV-063-A06], for which the “Fold … (±0.05)” value in assay [2] was 0.36 fold.

Regarding `NCCCNC(=O)N1CCC[C@H](C(=O)Nc2ccc(Cl)c(F)c2)C1` [(S)-MCG-IV-211], the “Fold … (±0.05)” value in assay [2] was 0.25 fold.

On to `NCCOC(=O)N1CCC[C@H](C(=O)Nc2ccc(Cl)c(F)c2)C1` [(S)-MCG-IV-267], for which the “Fold … (±0.05)” value in assay [2] came out at 0.30 fold.

Turning to `CS(=O)(=O)N1CCC(C(=O)Nc2ccc(Cl)c(F)c2)CC1` [MCG-III-101], the fold induction at 50 µM in assay [1] was found to be 1.14. Further, the “Fold … (±0.05)” value in assay [2] was 0.21 fold.

Regarding `O=C(Nc1ccc(Cl)c(F)c1)C1CCN(S(=O)(=O)c2ccccc2)C1` (centres unmarked) [MCG-III-157-A03], the fold induction at 50 µM in assay [1] was determined as 1.57. The “Fold … (±0.05)” value in assay [2] amounted to 0.33 fold.

Regarding `CCS(=O)(=O)N1CCCC(C(=O)Nc2ccc(Cl)c(F)c2)C1` (centres unmarked) [MCG-III-157-B02], the fold induction at 50 µM in assay [1] was found to be 2.62. Further, the “Fold … (±0.05)” value in assay [2] came to 0.68 fold.

For the compound `CS(=O)(=O)N1CCCC(NC(=O)c2ccc(Cl)c(F)c2)C1` (centres unmarked) [MCG-III-157-C01], the fold induction at 50 µM in assay [1] came to 1.04. Moreover, the “Fold … (±0.05)” value in assay [2] was 0.08 fold.
